From patent US20090286829A1, “QUINOLYNYLMETHYLIMIDIZOLES AS THERAPEUTIC AGENTS” (ALLERGAN, INC., priority 2008, published 2009)

How the values were obtained:
Type in all cases: cell-based
Alpha 2B = biological target: T1, Alpha 2B (Homo sapiens, UniProt P18089); assay: RSAT assay, alpha 2B receptor; details: for Alpha 2B (IA) intrinsic activity: RSAT, ratio of maximal effect to that of standard agonist brimonidine
T1 construct: expressed in transfected cells; host or cells: NIH-3T3
T1 sequence (P18089 1-450): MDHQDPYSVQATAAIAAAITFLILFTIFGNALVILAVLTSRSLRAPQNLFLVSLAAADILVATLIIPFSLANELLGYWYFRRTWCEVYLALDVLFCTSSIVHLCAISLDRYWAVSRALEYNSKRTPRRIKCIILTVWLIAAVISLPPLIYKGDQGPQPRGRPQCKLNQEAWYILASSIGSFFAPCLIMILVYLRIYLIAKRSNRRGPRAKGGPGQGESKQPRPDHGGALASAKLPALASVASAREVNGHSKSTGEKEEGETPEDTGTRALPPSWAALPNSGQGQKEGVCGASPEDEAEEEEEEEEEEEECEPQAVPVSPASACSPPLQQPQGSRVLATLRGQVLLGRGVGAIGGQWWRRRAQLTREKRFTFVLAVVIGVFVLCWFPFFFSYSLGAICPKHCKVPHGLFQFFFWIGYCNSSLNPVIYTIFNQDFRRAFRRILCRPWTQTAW
Experimental: (§1) The RSAT assay measures a receptor-mediated loss of contact inhibition that results in selective proliferation of receptor-containing cells in a mixed population of confluent cells. The increase in cell number is assessed with an appropriate transfected marker gene such as -galactosidase, the activity of which can be easily measured in a 96-well format. Receptors that activate the G protein, Gq, elicit this response. Alpha2 receptors, which normally couple to Gi, activate the RSAT response when coexpressed with a hybrid Gq protein that has a Gi receptor recognition domain, called Gq/i5.
NIH-3T3 cells are plated at a density of 2×10^6 cells in 15 cm dishes and maintained in Dulbecco's modified Eagle's medium supplemented with 10% calf serum. One day later, cells are cotransfected by calcium phosphate precipitation with mammalian expression plasmids encoding p-SV-1-galactosidase (5-10 μg), receptor (1-2 μg) and G protein (1-2 μg). 40 μg salmon sperm DNA may also be included in the transfection mixture. Fresh media is added on the following day and 1-2 days later, cells are harvested and frozen in 50 assay aliquots. Cells are thawed and 100 μl added to 100 μl aliquots of various concentrations of drugs in triplicate in 96-well dishes. Incubations continue 72-96 hr at 37° C. After washing with phosphate-buffered saline, β-galactosidase enzyme activity is determined by adding 200 μl of the chromogenic substrate (consisting of 3.5 mM o-nitrophenyl-β-D-galactopyranoside and 0.5% nonidet P-40 in phosphate buffered saline), incubating overnight at 30° C. and measuring optical density at 420 nm. The absorbance is a measure of enzyme activity, which depends on cell number and reflects a receptor-mediated cell proliferation. The efficacy or intrinsic activity is calculated as a ratio of the maximal effect of the drug to the maximal effect of a standard full agonist for each receptor subtype. Brimonidine, also called UK14304, the chemical structure of which is shown below, is used as the standard agonist for the alpha2A, alpha2B and alpha2C receptors. The EC50 is the concentration at which the drug effect is half of its maximal effect.
EC50 values are nanomolar. NA stands for “not active” at concentrations less than 10 micromolar. IA stands for “intrinsic activity.”

Alpha 2C = biological target: T2, Alpha 2C (Homo sapiens, UniProt P18825); assay: RSAT assay, alpha 2C receptor
T2 construct: expressed in transfected cells; host or cells: NIH-3T3
T2 sequence (P18825 1-462): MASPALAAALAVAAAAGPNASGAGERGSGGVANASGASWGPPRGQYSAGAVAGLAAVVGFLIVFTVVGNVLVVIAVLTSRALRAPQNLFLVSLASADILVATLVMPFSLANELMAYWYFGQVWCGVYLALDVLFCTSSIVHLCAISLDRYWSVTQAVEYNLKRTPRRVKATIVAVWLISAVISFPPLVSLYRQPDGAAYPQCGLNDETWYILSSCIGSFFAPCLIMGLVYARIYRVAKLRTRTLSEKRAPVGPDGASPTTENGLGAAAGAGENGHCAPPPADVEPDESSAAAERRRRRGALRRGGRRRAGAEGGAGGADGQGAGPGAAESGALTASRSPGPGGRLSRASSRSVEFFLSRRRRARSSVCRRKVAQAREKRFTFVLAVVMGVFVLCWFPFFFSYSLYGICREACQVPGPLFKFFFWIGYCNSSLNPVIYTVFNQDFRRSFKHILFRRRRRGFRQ
Experimental: as §1
(§2) NIH-3T3 cells are plated at a density of 2×10^6 cells in 15 cm dishes and maintained in Dulbecco's modified Eagle's medium supplemented with 10% calf serum. […] After washing with phosphate-buffered saline, β-galactosidase enzyme activity is determined by adding 200 μl of the chromogenic substrate (consisting of 3.5 mM o-nitrophenyl-β-D-galactopyranoside and 0.5% nonidet P-40 in phosphate buffered saline), incubating overnight at 30° C. and measuring optical density at 420 nm. The absorbance is a measure of enzyme activity, which depends on cell number and reflects a receptor-mediated cell proliferation. The efficacy or intrinsic activity is calculated as a ratio of the maximal effect of the drug to the maximal effect of a standard full agonist for each receptor subtype. […]

Alpha 1A = biological target: T3, Alpha 1A (Homo sapiens, UniProt P35348); assay: RSAT assay, alpha 1A receptor
T3 construct: expressed in transfected cells; host or cells: NIH-3T3
T3 sequence (P35348 1-466): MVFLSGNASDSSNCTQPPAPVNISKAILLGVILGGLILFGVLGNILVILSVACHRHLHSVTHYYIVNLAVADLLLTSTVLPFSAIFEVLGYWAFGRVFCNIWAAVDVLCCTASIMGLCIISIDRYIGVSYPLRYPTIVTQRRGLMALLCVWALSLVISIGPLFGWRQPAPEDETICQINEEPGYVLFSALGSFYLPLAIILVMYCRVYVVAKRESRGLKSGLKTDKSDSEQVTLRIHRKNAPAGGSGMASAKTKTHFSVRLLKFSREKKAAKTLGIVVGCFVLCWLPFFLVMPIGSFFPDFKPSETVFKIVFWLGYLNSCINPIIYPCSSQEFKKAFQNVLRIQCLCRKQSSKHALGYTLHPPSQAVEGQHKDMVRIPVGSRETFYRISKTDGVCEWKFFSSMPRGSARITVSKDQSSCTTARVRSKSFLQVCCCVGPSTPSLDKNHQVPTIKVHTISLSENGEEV
Experimental: as §1, §2

Alpha 2A = biological target: T4, Alpha 2A (Homo sapiens, UniProt P08913); assay: RSAT assay, alpha 2A receptor; details: ratio of maximal effect to that of standard agonist brimonidine
T4 construct: expressed in transfected cells; host or cells: NIH-3T3
T4 sequence (P08913 1-465): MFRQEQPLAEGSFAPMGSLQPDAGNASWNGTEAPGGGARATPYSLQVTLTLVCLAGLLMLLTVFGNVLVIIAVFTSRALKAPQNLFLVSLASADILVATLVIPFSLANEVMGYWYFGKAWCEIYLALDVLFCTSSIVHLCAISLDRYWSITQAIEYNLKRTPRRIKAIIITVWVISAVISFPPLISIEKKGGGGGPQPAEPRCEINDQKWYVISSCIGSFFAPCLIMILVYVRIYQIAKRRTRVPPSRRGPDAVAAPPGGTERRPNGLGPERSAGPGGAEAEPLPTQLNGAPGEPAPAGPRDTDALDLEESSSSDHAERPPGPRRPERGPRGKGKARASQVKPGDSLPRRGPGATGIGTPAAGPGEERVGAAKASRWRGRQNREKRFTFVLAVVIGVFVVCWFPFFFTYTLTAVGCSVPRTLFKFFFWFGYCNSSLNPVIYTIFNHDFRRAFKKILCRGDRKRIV
Experimental: as §1, §2

| SMILES | EC50 (Alpha 2B) [nM] | Alpha 2B (IA) intrinsic activity (Alpha 2B) | EC50 (Alpha 2C) [nM] | Alpha 2C (IA) intrinsic activity (Alpha 2C; RSAT, ratio of maximal effect to that of standard agonist brimonidine) | EC50 (Alpha 1A) [nM] | Alpha 1A (IA) intrinsic activity (Alpha 1A; RSAT, ratio of maximal effect of drug to maximal effect of standard full agonist) | Alpha 2A (IA) intrinsic activity (Alpha 2A) |
| --- | --- | --- | --- | --- | --- | --- | --- |
| Cc1[nH]cnc1C(C)c1cccc2cccnc12 (stereo not drawn) [8-(1-(5-methyl-1H-imidazol-4-yl)ethyl)quinoline] | 30 | 0.70 | 3110 | 0.32 | – | – | – |
| Cc1[nH]cnc1Cc1cccc2cccnc12 [8-((5-methyl-1H-imidazol-4-yl)methyl)quinoline] | 117 | 0.70 | – | – | 1730 | 0.75 | – |
| Cc1[nH]cnc1Cc1ccc2cccnc2c1C [8-methyl-7-((5-methyl-1H-imidazol-4-yl)methyl)quinoline] | – | – | – | – | – | – | 0.43 |
